What was measured:
[1] = Lipophilicity of the compound assessed as retardation factor using hexane-ethyl acetate solvent system (5:2) on silica gel TLC plate system; type: physicochemical; conditions: hexane-ethyl acetate (5:2)
Spodoptera litura = test: Antifeedant activity against Spodoptera litura third-instar larvae fed on compound treated fresh sweet potato leaves by dual choice leaf disk assay; type: functional
Daphnia magna = test: Toxicity against Daphnia magna after 12 hr post compound treatment; type: organism-based; conditions: in vivo

| Compound | Rf [1] | ED50 (Spodoptera litura) | pED50 (Spodoptera litura) | LD50 (Daphnia magna) [ppm] |
| --- | --- | --- | --- | --- |
| C=C(C)C1Cc2c(OC)cc(OC)c(C(C)=O)c2O1 (centres undefined) | 0.24 | 5.4 ×10⁻⁹ mol/cm2 | 8.27 | 9.1 |
| C=C(C)C1Cc2c(cc(OC)c(OC)c2OC)O1 (centres undefined) | 0.68 | 5.6 ×10⁻⁸ mol/cm2 | 7.25 |  |
| COc1cc2c(c(OC)c1C(C)=O)CC(C(C)C)O2 (centres undefined) | 0.58 | 7.6 ×10⁻⁸ mol/cm2 | 7.12 |  |
| C=C(C)C1Cc2cc(C(C)=O)ccc2O1 (racemic) | 0.61 | 7.4 ×10⁻⁸ mol/cm2 | 7.13 |  |
| C=C(C)C1Cc2c(cc(OC)c(C(C)O)c2OC)O1 (centres undefined) | 0.83 | 1.1 ×10⁻⁷ mol/cm2 | 6.96 |  |
| C=C(C)C1Cc2ccccc2O1 (centres undefined) | 0.92 | 1.1 umol/cm2 | 5.96 |  |
| C=C(C)C1Cc2cc(OC)ccc2O1 (centres undefined) | 0.84 | 1.3 ×10⁻⁷ mol/cm2 | 6.89 |  |
| C=C(C)c1cc2cc(C(C)=O)c(O)cc2o1 [EUPARIN] | 0.76 | 1.2 ×10⁻⁹ mol/cm2 | 5.92 |  |
| C=C(C)c1cc2cc(C(C)=O)c(OC)cc2o1 [MethylEuparin] | 0.66 | 6.1 ×10⁻⁸ mol/cm2 | 7.21 |  |
| C=C(C)C1Cc2c(OC)c(OC)c(OC)c(C(C)=O)c2O1 (centres undefined) | 0.52 | 1.6 ×10⁻⁸ mol/cm2 | 7.8 |  |
| C=C(C)C1Cc2ccc(OC)cc2O1 (centres undefined) | 0.86 | 6.3 ×10⁻⁷ mol/cm2 | 6.2 |  |

The next lines start with results.

| Rf [1] | Compound | ED50 (Spodoptera litura) | pED50 (Spodoptera litura) | LD50 (Daphnia magna) [ppm] |
| --- | --- | --- | --- | --- |
| 0.51 | C=C(C)[C@@H]1Cc2c(cc(OC)c(C(C)=O)c2O)O1 [REMIROL] | 1.3 ×10⁻⁷ mol/cm2 | 6.89 |  |
| 0.52 | C=C(C)C1Cc2c(cc(OC)c(C(C)=O)c2OC)O1 (centres undefined) | 2.8 ×10⁻⁸ mol/cm2 | 7.55 |  |
| 0.82 | C=C(C)C1Cc2c(OC)cc(OC)cc2O1 (centres undefined) | 5.3 ×10⁻⁸ mol/cm2 | 7.28 |  |
| 0.62 | C=C(C)C1Cc2cc(C(C)=O)c(OC)cc2O1 (centres undefined) | 4.2 ×10⁻⁸ mol/cm2 | 7.38 |  |
| 0.51 | C=C(C)C1Cc2c(cc(OC)c(C(C)=O)c2O)O1 (racemic) | 7.1 ×10⁻⁸ mol/cm2 | 7.15 |  |
